For two compounds, IC50 results are on record in US12365674B2, “Inhibitors of histone deacetylase useful for the treatment or prevention of HIV infection” (Merck Sharp & Dohme LLC, priority 2019, dated 2025).

In the assay the target is T1, HDAC6 (Homo sapiens, UniProt Q9UBN7).
T1 sequence (Q9UBN7 1-1215): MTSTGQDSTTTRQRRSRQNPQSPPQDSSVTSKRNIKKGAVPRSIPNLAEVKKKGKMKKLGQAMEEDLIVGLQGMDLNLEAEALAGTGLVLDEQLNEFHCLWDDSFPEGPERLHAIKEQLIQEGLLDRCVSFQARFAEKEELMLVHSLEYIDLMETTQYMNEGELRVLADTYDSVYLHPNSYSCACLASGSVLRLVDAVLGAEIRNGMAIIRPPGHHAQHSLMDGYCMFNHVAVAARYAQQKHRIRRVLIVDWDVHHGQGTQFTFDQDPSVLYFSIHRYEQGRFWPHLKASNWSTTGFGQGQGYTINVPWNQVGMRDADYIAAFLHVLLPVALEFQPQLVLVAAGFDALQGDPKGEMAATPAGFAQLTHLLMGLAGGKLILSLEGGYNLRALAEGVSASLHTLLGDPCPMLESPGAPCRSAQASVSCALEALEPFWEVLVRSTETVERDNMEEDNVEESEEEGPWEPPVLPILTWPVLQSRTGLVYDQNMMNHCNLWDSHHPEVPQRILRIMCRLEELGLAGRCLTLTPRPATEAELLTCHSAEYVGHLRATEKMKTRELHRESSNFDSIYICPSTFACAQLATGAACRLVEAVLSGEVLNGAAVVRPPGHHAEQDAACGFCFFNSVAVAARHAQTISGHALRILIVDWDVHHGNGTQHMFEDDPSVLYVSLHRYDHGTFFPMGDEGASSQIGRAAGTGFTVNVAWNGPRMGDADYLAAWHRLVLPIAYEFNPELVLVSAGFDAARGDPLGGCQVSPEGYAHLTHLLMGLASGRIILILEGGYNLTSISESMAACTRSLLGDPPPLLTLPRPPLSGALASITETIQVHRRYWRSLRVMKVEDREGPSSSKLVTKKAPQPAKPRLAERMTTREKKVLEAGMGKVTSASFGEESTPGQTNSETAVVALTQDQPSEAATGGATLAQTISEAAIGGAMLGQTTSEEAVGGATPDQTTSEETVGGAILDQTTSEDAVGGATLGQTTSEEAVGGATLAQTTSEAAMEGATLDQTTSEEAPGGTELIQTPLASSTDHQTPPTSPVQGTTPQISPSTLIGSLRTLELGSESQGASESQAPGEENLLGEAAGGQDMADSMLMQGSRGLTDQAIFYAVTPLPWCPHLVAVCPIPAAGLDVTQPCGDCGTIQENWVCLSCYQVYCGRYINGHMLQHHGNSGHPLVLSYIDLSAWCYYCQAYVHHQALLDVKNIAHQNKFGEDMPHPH
As to the kind of experiment: Human HDAC enzyme inhibitor Fluor-de-Lys assay, HDAC6. Type of assay: biochemical. As to conditions: 1.3 nM enzyme, 2.5 μM substrate BML-KI104, 3 h pre-incubation, 60 min reaction; read-out: HDAC6_IC50. The source says: Recombinant human HDAC8 (catalog number BML-SE145-0100) and HDAC10 (catalog number BML-SE559-0050) enzymes, HDAC substrates BML-KI104 and BML-KI178, and HDAC developer solutions BML-KI105 and BML-KI176 were purchased from Enzo Life Sciences (Farmingdale, NY). Recombinant human HDAC5 and HDAC11 were purchased from BPS Bioscience (San Diego, CA)(catalog numbers 50045 and 50021). Substrate Boc-Lys(TFA)-AMC was obtained from Bachem (Bupendorf, Switzerland) (catalog number 1-1985). HDAC inhibitor suberoylanilide hydroxamic acid (SAHA) was obtained from Indofine (Hillsborough Township, NJ) and trichostatin A (TSA) was obtained from Sigma-Aldrich (St. Louis, MO). […] HEPES pH 8.0 was obtained from Boston BioProducts (Ashland, MA), Tween-20 from Fisher Scientific (Hampton, NH)(catalog number BP337), TCEP from Calbiochem and 7.5% bovine serum albumin (BSA) from Life Technologies (Carlsbad, CA) (catalog number 15260037). 384-well, black assay plates were obtained from Corning (Corning, NY) (catalog number 3575).
The histone deacetylase activities of HDAC1, HDAC2, HDAC3, HDAC6, and HDAC8 were measured in modified Fluor-de-Lys assays in 384-well format. In this assay, HDAC enzymes are initially incubated with an ε-acetyl (or -trifluoroacetyl)-L-lysine-containing substrate with a C-terminal amide having aminomethylcoumarin as the amine component. HDACs cleave the ε-acetyl group, rendering the resulting product susceptible to AMC cleavage by trypsin. The released AMC is then detected by its fluorescence.
The HDAC 1, 2 assays employed buffer A, which contained 20 mM HEPES, pH 8.0, 1 mM MgCl2, 137 mM NaCl, 2.7 mM KCl, 0.05% BSA. The HDAC3/SMRT assay employed buffer B, consisting of 20 mM HEPES, pH 8.0, 1 mM MgCl2, 50 mM NaCl, 2.7 mM KCl, 0.05% BSA, 0.005% Tween 20, and 10 μM IP4. The HDAC6 assay employed buffer C, consisting of 20 mM HEPES, pH 8.0, 1 mM MgCl2, 137 mM NaCl, 2.7 mM KCl, 0.5 mM TCEP (Calbiochem) and 0.05% BSA. The HDAC8 assay employed buffer D, consisting of 20 mM HEPES, pH 8.0, 1 mM MgCl2, 100 mM NaCl, 20 mM KCl, 0.1% n-octyl-β-D-glucoside (Anatrace, Maumee, OH) and 0.05% BSA. All steps were performed at room temperature (23° C.). The assay was performed by pre-incubating serial dilutions of test compounds with the target HDAC prior to initiation with substrate. Each compound was titrated in a 10-point dose response, using a 1:3 fold dilution scheme, with 0.15 ul of solution added by ECHO555 to the plate, followed by the addition of 20 μl of the appropriate HDAC isoform diluted in appropriate assay buffer. […] Final conditions used for each assay were: 1. HDAC 1, 0.3 nM total enzyme, 20 μM substrate BML-K1104; 2. HDAC 2, 1.5 nM total enzyme, 40 μM substrate BML-K1104; 3. HDAC 3/SMRT, 0.3 nM total enzyme, 20 μM substrate BML-K1104; 4. HDAC 6, 1.3 nM total enzyme, 2.5 μM substrate BML-K1104; 5. HDAC 8, 1.3 nM total enzyme, 200 μM substrate BML-K1178; the final high dose of test compound was 30 μM. For potent compounds, 900 nM was used as the final high dose. The reactions were stopped and developed by addition of 30 ul of HDAC developer solution containing a saturating level of HDAC inhibitor as follows: 1.

SMILES strings stand for the structures.

On to `CNC(=O)C(=O)CCCOC[C@H](NC(=O)c1cncs1)c1ncc(-c2cc3ccccc3nc2OC)[nH]1` [Compound 8, N-[(1R)-1-[5-(2-methoxyquinolin-3-yl)-1H-imidazol-2-yl]-2-{[5-(methylamino)-4,5-dioxopentyl]oxy}ethyl]-1,3-thiazole-5-carboxamide], for which the IC50 was determined as 5.11 µM.

Take `COc1nc2ccccc2cc1-c1cnc([C@H](COCCCC(=O)c2ncco2)NC(=O)[C@H]2CC23CCN(C)CC3)[nH]1` [Compound 11, (1S)-N-{(1R)-1-[5-(2-methoxyquinolin-3-yl)-1H-imidazol-2-yl]-2-[4-(1,3-oxazol-2-yl)-4-oxobutoxy]ethyl}-6-methyl-6-azaspiro[2.5]octane-1-carboxamide]: the IC50 is above 45 µM.
